Measured values published in the NIST ThermoML archive (doi:10.1021/je100598x).
Numbers after ± are expanded uncertainties.

Experiment: cn = amount concentration of the nth substance listed, in mol/dm3
Settings: 101 kPa, Liquid, Direct current cell with electrodes

CCCCCCCCCCCC[N+](CCCC)(CCCC)CCCC.[Br-] [dodecyltributylammonium bromide] + O
electrical conductivity [S/m]
Settings | 288.15 K | 293.15 K | 298.15 K | 303.15 K | 308.15 K | 313.15 K | 318.15 K
c1 = 0.000658 | 0.005218 ± 5.2e-05 | 0.00579 ± 6e-05 | 0.00649 ± 6.5e-05 | 0.007326 ± 7.3e-05 | 0.00785 ± 8e-05 | 0.008542 ± 8.5e-05 | 0.00923 ± 9e-05
c1 = 0.001299 | 0.009805 ± 9.8e-05 | 0.01101 ± 0.00011 | 0.01226 ± 0.00012 | 0.0138 ± 0.0001 | 0.01502 ± 0.00015 | 0.01631 ± 0.00016 | 0.0177 ± 0.0002
c1 = 0.001923 | 0.01419 ± 0.00014 | 0.01604 ± 0.00016 | 0.0179 ± 0.00018 | 0.0201 ± 0.0002 | 0.0218 ± 0.0002 | 0.0238 ± 0.0002 | 0.0258 ± 0.0003
c1 = 0.002532 | 0.01845 ± 0.00018 | 0.0208 ± 0.0002 | 0.0233 ± 0.0002 | 0.0262 ± 0.0003 | 0.0283 ± 0.0003 | 0.0309 ± 0.0003 | 0.0336 ± 0.0003
c1 = 0.003125 | 0.0226 ± 0.0002 | 0.0254 ± 0.0003 | 0.0287 ± 0.0003 | 0.0319 ± 0.0003 | 0.0346 ± 0.0004 | 0.0378 ± 0.0004 | 0.0412 ± 0.0004
c1 = 0.003704 | 0.0265 ± 0.0003 | 0.03 ± 0.0003 | 0.0335 ± 0.0003 | 0.0374 ± 0.0004 | 0.0407 ± 0.0004 | 0.0445 ± 0.0004 | 0.0484 ± 0.0005
c1 = 0.004268 | 0.0303 ± 0.0003 | 0.0341 ± 0.0003 | 0.0383 ± 0.0004 | 0.0427 ± 0.0004 | 0.0465 ± 0.0005 | 0.0509 ± 0.0005 | 0.0551 ± 0.0006
c1 = 0.004819 | 0.034 ± 0.0003 | 0.0384 ± 0.0004 | 0.0429 ± 0.0004 | 0.0476 ± 0.0005 | 0.0517 ± 0.0005 | 0.0566 ± 0.0006 | 0.0619 ± 0.0006
c1 = 0.005357 | 0.0377 ± 0.0004 | 0.0423 ± 0.0004 | 0.0472 ± 0.0005 | 0.052 ± 0.0005 | 0.0567 ± 0.0006 | 0.0619 ± 0.0006 | 0.0672 ± 0.0007
c1 = 0.005882 | 0.041 ± 0.0004 | 0.0459 ± 0.0005 | 0.0508 ± 0.0005 | 0.0554 ± 0.0006 | 0.0599 ± 0.0006 | 0.0658 ± 0.0007 | 0.0712 ± 0.0007
c1 = 0.006395 | 0.0441 ± 0.0004 | 0.0487 ± 0.0005 | 0.0532 ± 0.0005 | 0.0578 ± 0.0006 | 0.0629 ± 0.0006 | 0.069 ± 0.0007 | 0.0752 ± 0.0008
c1 = 0.006896 | 0.0466 ± 0.0005 | 0.0509 ± 0.0005 | 0.0556 ± 0.0006 | 0.0601 ± 0.0006 | 0.0658 ± 0.0007 | 0.072 ± 0.0007 | 0.0785 ± 0.0008
c1 = 0.007386 | 0.0485 ± 0.0005 | 0.0524 ± 0.0005 | 0.0575 ± 0.0006 | 0.0626 ± 0.0006 | 0.0678 ± 0.0007 | 0.0747 ± 0.0007 | 0.0817 ± 0.0008
c1 = 0.007865 | 0.05 ± 0.0005 | 0.0542 ± 0.0005 | 0.059 ± 0.0006 | 0.0647 ± 0.0006 | 0.0706 ± 0.0007 | 0.0773 ± 0.0008 | 0.0845 ± 0.0008
c1 = 0.008333 | 0.0513 ± 0.0005 | 0.0554 ± 0.0006 | 0.061 ± 0.0006 | 0.0666 ± 0.0007 | 0.0728 ± 0.0007 | 0.0798 ± 0.0008 | 0.0874 ± 0.0009
c1 = 0.008791 | 0.0523 ± 0.0005 | 0.0568 ± 0.0006 | 0.0622 ± 0.0006 | 0.0685 ± 0.0007 | 0.0749 ± 0.0008 | 0.0822 ± 0.0008 | 0.09 ± 0.0009
c1 = 0.009239 | 0.0537 ± 0.0005 | 0.0582 ± 0.0006 | 0.0641 ± 0.0006 | 0.0703 ± 0.0007 | 0.077 ± 0.0008 | 0.0845 ± 0.0008 | 0.0926 ± 0.0009
c1 = 0.009677 | 0.0548 ± 0.0006 | 0.0598 ± 0.0006 | 0.0652 ± 0.0007 | 0.0721 ± 0.0007 | 0.0789 ± 0.0008 | 0.0867 ± 0.0009 | 0.0952 ± 0.001
c1 = 0.01011 | 0.0556 ± 0.0006 | 0.061 ± 0.0006 | 0.0671 ± 0.0007 | 0.0737 ± 0.0007 | 0.0804 ± 0.0008 | 0.0889 ± 0.0009 | 0.0976 ± 0.001
c1 = 0.01053 | 0.0572 ± 0.0006 | 0.0623 ± 0.0006 | 0.0686 ± 0.0007 | 0.0757 ± 0.0008 | 0.0829 ± 0.0008 | 0.0913 ± 0.0009 | 0.1003 ± 0.001
c1 = 0.01094 | 0.0583 ± 0.0006 | 0.0636 ± 0.0006 | 0.0701 ± 0.0007 | 0.0774 ± 0.0008 | 0.0849 ± 0.0009 | 0.0935 ± 0.0009 | 0.1028 ± 0.001
c1 = 0.01134 | 0.0594 ± 0.0006 | 0.0649 ± 0.0007 | 0.0716 ± 0.0007 | 0.0791 ± 0.0008 | 0.0868 ± 0.0009 | 0.0957 ± 0.001 | 0.105 ± 0.0011
c1 = 0.01174 | 0.0605 ± 0.0006 | 0.0661 ± 0.0007 | 0.073 ± 0.0007 | 0.0807 ± 0.0008 | 0.0887 ± 0.0009 | 0.0978 ± 0.001 | 0.108 ± 0.0011
c1 = 0.01212 | 0.0615 ± 0.0006 | 0.0673 ± 0.0007 | 0.0744 ± 0.0007 | 0.0824 ± 0.0008 | 0.0905 ± 0.0009 | 0.0998 ± 0.001 | 0.11 ± 0.0011
c1 = 0.0125 | 0.0626 ± 0.0006 | 0.0685 ± 0.0007 | 0.0758 ± 0.0008 | 0.084 ± 0.0008 | 0.0923 ± 0.0009 | 0.1019 ± 0.001 | 0.1122 ± 0.0011
